# Key:
# [1] = test system: human subject with heart failure; assay: Oral cicletanine 150 mg daily in a human subject with heart failure; format: in vivo; conditions: oral 150 mg daily
# Protocol: Natriuretic peptide level, a marker of heart failure is improved by oral administration of 150 mg of Cicletanine daily to a human subject with heart failure.
# [2] = test system: patient with idiopathic pulmonary arterial hypertension; assay: Human case (Example 1): oral once daily cicletanine in a patient with idiopathic pulmonary arterial hypertension (Class I); format: in vivo; conditions: for 6-minute walking distance: less than 30 meters immediately prior to initiation; for levels of N-terminal pro-B-type natriuretic peptide: 4409 immediately prior to therapy
# Protocol: A successful clinical trial of one of the embodiments comprised use of racemic cicletanine with the dosage initiated at 50 mg daily and titrated as tolerated to 150 mg daily in a patient with Class I Pulmonary Hypertension.
# A patient with idiopathic pulmonary arterial hypertension, despite having been for some time on high doses of all three classes of approved pulmonary hypertension drugs (endothelin receptor antagonist, prostacyclin, and PDE5 inhibitor), was in heart failure and deteriorating rapidly. The patient had finally been stabilized in the intensive care unit with continuously inhaled nitric oxide. Cicletanine therapy was inititiated—oral once daily, titrating from 50 mg to 150 mg/day over three days—day 1 at 50 mg, day 2 at 100 mg, day 3 and thereafter at 150 mg. Within three days from initiation of cicletanine therapy, the patient was weaned off nitric oxide and released from the intensive care unit; they were home within 5 days of initiation of cicletanine treatment. The patient has been on the cicletanine therapy for four and a half months.
# The patient has manifested a significant improvement in 6-minute walking distance, which was less than 30 meters immediately prior to cicletanine initiation, and was over 200 meters after one month of cicletanine therapy and was over 400 meters from the second month of cicletanine therapy onward.
# Immediately prior to cicletanine therapy the marker was at 4409; within a few days of cicletanine therapy biomarker levels had fallen to less than 2000, and have stayed near 2000 for approximately four months.
# The patient, formerly bedridden, is now able to perform housework and take regular exercise.
# [3] = test system: Class III Pulmonary Hypertension; assay: Oral cicletanine 50 mg daily in Class III pulmonary hypertension (associated with left-sided heart failure); format: in vivo, human
# Protocol: Yet another embodiment comprises the use of 50 mg oral daily doses of racemic cicletanine for treatment of Class III Pulmonary Hypertension, resulting in improved NYHA functional status.
# [4] = Tolerance and systemic blood pressure effects of cicletanine in patients; format: in vivo, human
# Protocol: We have unexpectedly found good tolerance of Cicletanine in some patient populations at doses up to 400 mg. […] This is particularly effective by use of means to reduce or modulate the magnitude of the kaliuretic, natriuretic and diuretic effects of Cicletanine. As part of aspects of the present invention, and as described below, we have also invented several means of accomplishing this objective.
# In accordance of the other embodiments of the present invention, an oral therapeutic formulation is disclosed wherein sufficient cicletanine is contained to improve pulmonary hemodynamics without excessive lowering of systemic blood pressure. Excessive reduction of systemic blood pressure has been a limiting side effect in many agents potentially useful for treatment of pulmonary hypertension. […] Use of appropriate delivery or other mechanisms to optimize blood levels of individual isomers will allow even higher dosing without adverse impacts on systemic blood pressures.
# In accordance with some embodiments of the present invention, an oral formulation is disclosed, comprising a therapeutically effective amount of cicletanine alone or in combination with a second agent such that the overall formulation improves pulmonary hemodynamics without inappropriately lowering systemic blood pressure. […]
# [5] = test system: nitric oxide in vascular tissue; assay: Nitric oxide levels in vascular tissue
# [6] = test system: WHO class II pulmonary hypertension patients; assay: Oral cicletanine 50 mg daily in WHO class II pulmonary hypertension patients; format: in vivo, human
# Protocol: When dosed orally once daily at 50 mg daily, improvements in functional status as measured by improved 12 minute walking distance were observed.
# Another embodiment comprises the use of 50 mg oral daily doses of racemic cicletanine for treatment of Class II Pulmonary Hypertension, resulting in improved walking distance values.
# [7] = 50 mg daily titrated to 150 mg daily, patient with Class I Pulmonary Hypertension
compound,measurement,setting,value
Cc1ncc2c(c1O)COC2c1ccc(Cl)cc1 (racemic) [cicletanine],Natriuretic peptide level (marker of heart failure),[1],improved
same,6-minute walking distance,[2]; after one month of cicletanine therapy (150 mg/day oral),over 200 meters
same,levels of N-terminal pro-B-type natriuretic peptide,[2]; for approximately four months of therapy,~2000
same,quality of life,"[2]; formerly bedridden, now able to perform housework and take regular exercise",improved significantly
same,6-minute walking distance,[2]; from the second month of cicletanine therapy onward,over 400 meters
same,time from initiation of treatment until home,[2]; titrating from 50 mg to 150 mg/day,≤ 5 days
same,time from initiation of therapy until weaned off nitric oxide and released from the intensive care unit,[2]; titrating from 50 mg to 150 mg/day over three days,three
same,levels of N-terminal pro-B-type natriuretic peptide,[2]; within a few days of cicletanine therapy,less than 2000
same,hemodynamic and clinical change from baseline,[3]; pulmonary hypertension associated with left-sided heart failure,"favorable, long-term hemodynamic and clinical improvements"
same,systemic blood pressure,"[4]; human, in vivo",tends not to lower
same,doses with good tolerance,[4]; some patient populations,up to 400 mg
same,tachyphylaxis to its own nitric oxide effects,[5],avoids tachyphylaxis
same,levels of nitric oxide in vascular tissue,[5]; persistent across concentrations corresponding to human doses from 1 mg daily to several thousand milligrams daily,increased levels
same,12 minute walking distance (functional status),"[6]; oral once daily 50 mg, WHO class II patients",improved
Cc1ncc2c(c1O)COC2c1ccc(Cl)cc1 (racemic) [racemic cicletanine],increase in walking distance,[2]; [7],more than 12 fold
same,natriuretic peptide serum levels,[2]; [7],substantial reductions
same,NYHA functional status,"[3]; 50 mg oral daily doses, Class III Pulmonary Hypertension",improved
same,walking distance values,"[6]; 50 mg oral daily doses, Class II Pulmonary Hypertension",improved
"Cc1ncc2c(c1O)COC2c1ccc(Cl)cc1 (single isomer, unassigned; (-)) [(−) cicletanine]","nitric oxide enhancing effect, (−) versus (+) cicletanine",[5]; compared with (+) cicletanine,more prominent

# Reference: US20080312241A1, “Cicletanine and PKC inhibitors in the treatment of pulmonary and cardiac disorders” (Gilead Sciences, Inc., priority 2007, published 2008)
